Molecules are shown by their SMILES. Values after ≈ are worked out from the molar mass of the structure shown. Values joined by “and” are separate entries in the source; they are usually repeats but may differ in a detail not shown here. Equal entries are not always repeated. Where two headings read alike, the source gives them in different places. Bounds are passed on as bounds.

Data set [1] relates to M. tuberculosis H37Rv. The data set is described as follows: MIC against replicating M. tuberculosis H37Rv, microplate Alamar blue assay (MABA). It is filed as cell-based. To be noted: Mycobacterium tuberculosis, H37RV.
For another data set, the system named is Vero cells. The data set is described as follows: Cytotoxicity assay in Vero cells (MTT). It is filed as cell-based. Conditions: Chlorocebus sabaeus, 48 h, read-out: IC50 (Vero).
Another data set deals with Mt-DprE1 (Mycobacterium tuberculosis, UniProt P9WJF1). It is filed as biochemical, M. tuberculosis.
Mt-DprE1, sequence (P9WJF1 whole entry, looked up): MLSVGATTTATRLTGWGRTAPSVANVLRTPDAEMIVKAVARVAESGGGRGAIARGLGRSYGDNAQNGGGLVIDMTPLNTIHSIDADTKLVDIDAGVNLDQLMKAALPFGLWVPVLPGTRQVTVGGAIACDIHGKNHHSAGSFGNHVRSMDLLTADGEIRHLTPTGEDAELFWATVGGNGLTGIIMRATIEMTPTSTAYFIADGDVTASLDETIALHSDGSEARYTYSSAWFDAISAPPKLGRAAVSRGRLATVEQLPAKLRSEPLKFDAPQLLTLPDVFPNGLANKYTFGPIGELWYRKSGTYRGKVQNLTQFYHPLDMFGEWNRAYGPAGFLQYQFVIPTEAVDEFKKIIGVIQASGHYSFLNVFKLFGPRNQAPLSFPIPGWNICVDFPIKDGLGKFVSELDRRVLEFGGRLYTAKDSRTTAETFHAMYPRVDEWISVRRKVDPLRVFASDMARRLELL
Data set [2] is described as follows: in vitro. Conditions: male, mouse, hepatocytes.
Data set [3] is described as follows: in vitro. To be noted: human, hepatocytes.
The nature of data set [4]: in vitro. To be noted: human.
A further data set has as its target hERG K+ channel (Homo sapiens, UniProt Q12809). The data set is described as follows: Inhibition of the hERG K+ channel, electrophysiology. (In general: Block of hERG is tested as a sign of cardiac risk.)
In the next data set the test system is M. tuberculosis. Details: method as in PMID 19299584, PMID 24500695. Conditions: antimycobacterial activity; cited from earlier work.
Data set [5] has as its system M. tuberculosis (H37Rv) in infected mouse J774A.1 macrophages. It is filed as cell-based.
The test system of data set [6] is M. tuberculosis H37Rv. Description: In vivo efficacy in acute TB infection model in Balb/c mice. Conditions: for log10 CFU/lung: oral, three weeks, INH 25 mg/kg; for Δlog10 CFU: in vivo.
Data set [7] is described as follows: Hepatocyte stability assay, mouse. To be noted: male, mouse hepatocytes.
A short description of data set [8]: Hepatocyte stability assay, human. Conditions: human hepatocytes.
Data set [9] can be described thus: Pharmacokinetic studies in Balb/c mice. To be noted: for AUC(0-inf) at 24 h / AUC(0-t) at 24 h / Cmax at 24 h / MRT inf at 24 h / clearance at 24 h / half-life at 24 h / Tmax at 24 h / bioavailability at 24 h: male, Balb/c, mouse, in vivo.
Data set [10] is described as follows: Cytotoxicity assay in HepG2 cells (MTT). Conditions: human.
Setting [11] is: against M. tuberculosis H37Rv, Tables 1-3, read-out: MIC.
[12] abbreviates: supplementary CSV, same values as Tables 1-3, read-out: Minimal inhibit concentration.

hERG K+ channel, sequence (Q12809 whole entry): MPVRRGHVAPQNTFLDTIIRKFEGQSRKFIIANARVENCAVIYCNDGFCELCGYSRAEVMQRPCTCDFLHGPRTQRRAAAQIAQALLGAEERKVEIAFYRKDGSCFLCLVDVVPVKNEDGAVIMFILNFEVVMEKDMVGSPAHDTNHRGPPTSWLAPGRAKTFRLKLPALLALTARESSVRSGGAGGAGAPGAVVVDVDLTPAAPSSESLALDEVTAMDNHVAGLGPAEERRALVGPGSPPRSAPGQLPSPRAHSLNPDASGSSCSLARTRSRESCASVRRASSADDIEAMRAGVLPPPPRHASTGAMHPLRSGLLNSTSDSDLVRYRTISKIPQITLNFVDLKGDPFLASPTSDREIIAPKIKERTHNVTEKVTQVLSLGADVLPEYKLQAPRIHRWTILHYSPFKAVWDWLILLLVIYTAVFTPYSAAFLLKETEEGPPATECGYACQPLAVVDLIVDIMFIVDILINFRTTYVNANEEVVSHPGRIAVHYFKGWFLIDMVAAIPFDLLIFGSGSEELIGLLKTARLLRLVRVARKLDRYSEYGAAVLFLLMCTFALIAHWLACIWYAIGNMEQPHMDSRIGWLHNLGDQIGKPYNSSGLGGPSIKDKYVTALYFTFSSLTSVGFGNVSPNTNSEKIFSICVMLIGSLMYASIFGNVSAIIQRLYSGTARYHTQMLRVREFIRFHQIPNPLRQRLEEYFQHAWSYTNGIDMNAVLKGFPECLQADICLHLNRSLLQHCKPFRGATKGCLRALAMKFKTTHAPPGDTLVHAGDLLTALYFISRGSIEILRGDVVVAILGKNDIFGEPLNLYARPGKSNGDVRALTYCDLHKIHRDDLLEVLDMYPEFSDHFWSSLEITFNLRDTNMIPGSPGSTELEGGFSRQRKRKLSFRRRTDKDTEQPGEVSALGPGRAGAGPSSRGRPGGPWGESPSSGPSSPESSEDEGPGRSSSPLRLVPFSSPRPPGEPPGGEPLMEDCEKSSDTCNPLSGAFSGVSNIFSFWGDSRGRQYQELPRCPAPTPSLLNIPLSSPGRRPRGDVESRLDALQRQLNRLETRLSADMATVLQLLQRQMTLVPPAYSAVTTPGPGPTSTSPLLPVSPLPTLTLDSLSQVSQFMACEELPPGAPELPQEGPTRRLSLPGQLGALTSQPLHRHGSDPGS

A word on the IC50: it is the concentration needed to halve the response being measured. For orientation: melting point means the temperature of the solid-liquid transition. The term half-life denotes the time needed for the level to fall by half in the phase considered. Higher therefore signals slow loss. The share remaining is what is left of the initial amount, in per cent. The low end stands for a greater loss, the high end for greater stability. In the case of `CCOC(=O)NC(=O)c1ccsc1NC(=O)c1ccc(C(=O)N2CCCCC2)s1` [Compound 24j, Ethyl (2-(5-(Piperidine-1-carbonyl)thiophene-2-carboxamido)thiophene-3-carbonyl)carbamate], the melting point was in the range of 175 to 176 °C. In addition, in the data set with M. tuberculosis H37Rv [1] (setting [11]), the MIC was 0.14 µg/mL (≈ 0.321 µM). Moreover, the MIC with M. tuberculosis H37Rv [1] (setting [12]) was 0.14 µg/mL (≈ 0.321 µM). For the same compound, the MIC with M. tuberculosis H37Rv [1] (Table 4, read-out: MIC H37Rv) was determined as 0.059 µg/mL (≈ 0.135 µM). In the data set with Vero cells (Vero), the IC50 was more than 64 µg/mL. Also, the “IC50 DprE1” value on Mt-DprE1 is 0.3 ± 0.1 µg/mL (≈ 0.689 µM). Moreover, in “in vitro [2]”, the half-life at 1 µM turned out to be 19.3 min and the share remaining at 0.5 h, 1 µM was determined as 34%. In the data set “in vitro [3]”, this compound registered a half-life at 1 µM of 72.5 min and a fraction remaining at 0.5 h, 1 µM of 75.1%. In the data set “in vitro [4]”, the IC50 was more than 64 µg/mL. In addition, the midpoint of inhibition against hERG K+ channel, the IC50, lay at 28.3 µM.

For the compound `O=c1nc(N2CCN(CC3CCCCC3)CC2)sc2c([N+](=O)[O-])cc(C(F)(F)F)cc12` [PBTZ169], the MIC in the data set on M. tuberculosis H37Rv [1] (Table 4, read-out: MIC H37Rv) came to 0.0001 µg/mL (≈ 0.000219 µM). Moreover, the MICs with M. tuberculosis is less than 0.016 µg/mL.

What is called AUC(0-inf) is the area under the concentration-time curve extrapolated to infinity. A high value points to high exposure. As a reminder, the AUC(0-t) is exposure summed from dosing to a finite time, without extrapolation to infinity. High values mean more exposure, low ones less exposure. In general, Cmax refers to the maximum level reached in the sampled fluid or tissue. In general, MRT inf refers to a mean duration of stay, worked out from the concentration-time curve. As a reminder, the clearance is the volume of plasma or blood freed of the substance per unit of time. Higher therefore signals a high capacity for elimination. As a reminder, the Tmax is the time at which the peak concentration occurs. As usually defined, the bioavailability is dose-corrected exposure relative to a reference, in per cent. A low value points to little systemic uptake. Take `COC(=O)NC(=O)c1ccsc1NC(=O)c1ccc(C(=O)N2CCCCC2)cc1` [Compound 25a, Methyl (2-(4-(Piperidine-1-carbonyl)benzamido)thiophene-3-carbonyl)carbamate]: in the data set with M. tuberculosis H37Rv [1] (setting [11]), the MIC is 0.19 µg/mL (≈ 0.457 µM). For the same compound, the MIC in the data set on M. tuberculosis H37Rv [1] (setting [12]) amounted to 0.19 µg/mL (≈ 0.457 µM). Besides, in the data set with Vero cells (Vero cells), the IC50 was more than 64 µg/mL. Besides, in data set [5], the “log10 CFU/macrophages” value was 4.77 ± 0.10 log10 CFU and 5.06 ± 0.03 log10 CFU; the “Δlog10 CFU” value was 0.75 log10 CFU and 0.46 log10 CFU. Also, the “log10 CFU/lung” value in the data set with M. tuberculosis H37Rv [6] (first column (batch with 25a; untreated 6.44), 25a 100 mg/kg) is on record as 4.42 ± 0.45 log10 CFU. Also, the “Δlog10 CFU” value in the data set with M. tuberculosis H37Rv [6] is 2.02 log10 CFU. Moreover, the “IC50 DprE1” value at Mt-DprE1 came out at 0.9 ± 0.2 µg/mL (≈ 2.17 µM). In data set [7], the half-life at 1 µM amounted to 27.1 min and the amount remaining at 0.5 h, 1 µM turned out to be 46.5%. In data set [8], this compound returned a half-life at 1 µM of 20.3 min and a share remaining at 0.5 h, 1 µM of 35.9%. In data set [9] (iv, 5 mg/kg), this compound showed an AUC(0-inf) at 24 h of 833 ng·h/mL, an AUC(0-t) at 24 h of 830 ng·h/mL, a Cmax at 24 h of 4560 ng/mL and an MRT inf at 24 h of 12 min. In data set [9] (iv, 5 mg/kg), the clearance at 24 h came out at 101 mL/min/kg and the half-life at 24 h is 15.6 min. In [9] (po, 50 mg/kg), this compound gave an AUC(0-inf) at 24 h of 657 ng·h/mL, an AUC(0-t) at 24 h of 651 ng·h/mL, a Cmax at 24 h of 486 ng/mL and an MRT inf at 24 h of 66 min. In data set [9] (po, 50 mg/kg), the Tmax at 24 h was 34.8 min, the bioavailability at 24 h was 7.9% and the half-life at 24 h was 51 min. This compound also returned an IC50 at 48 h in [10] of more than 64 µg/mL. This compound registered an IC50 on hERG K+ channel of 22.6 µM.

Regarding `CCOC(=O)NC(=O)c1ccsc1NC(=O)c1nc2ccccc2s1` [TCA1, reference compound], the MIC in the data set with M. tuberculosis H37Rv [1] (setting [11]) turned out to be 0.48 µg/mL (≈ 1.28 µM). Also, the MIC with M. tuberculosis H37Rv [1] (Table 4, read-out: MIC H37Rv) came to 0.47 µg/mL (≈ 1.25 µM). Moreover, the IC50 in the data set on Vero cells (Vero cells) came out at 31.8 µg/mL (≈ 84.6 µM). The “Δlog10 CFU” value in the data set with M. tuberculosis H37Rv [6] turned out to be 2.86 log10 CFU. Besides, the “log10 CFU/lung” value with M. tuberculosis H37Rv [6] (second column (another batch, with TCA1; untreated 7.10), TCA1 100 mg/kg) was 4.24 ± 0.25 log10 CFU. For the same compound, the “IC50 DprE1” value against Mt-DprE1 came to 0.1 ± 0.01 µg/mL (≈ 0.266 µM). In data set [7], this compound yielded a half-life at 1 µM of 85.3 min and a fraction remaining at 0.5 h of 74.8%. For the same compound, in [8], the half-life at 1 µM was 5.97 min and the fraction remaining at 0.5 h, 1 µM turned out to be 3.1%. The “enhancement of oral bioavailability relative to 25a” value in data set [9] (Balb/c mice) is 5 fold. In [9] (iv, 5 mg/kg), this compound gave an AUC(0-inf) at 24 h of 7910 ng·h/mL, an AUC(0-t) at 24 h of 7910 ng·h/mL, a Cmax at 24 h of 14300 ng/mL and an MRT inf at 24 h of 23.4 min. In data set [9] (iv, 5 mg/kg), this compound had a clearance at 24 h of 10.6 mL/min/kg and a half-life at 24 h of 28.2 min. In data set [9] (po, 50 mg/kg), this compound gave an AUC(0-inf) at 24 h of 33700 ng·h/mL, an AUC(0-t) at 24 h of 33700 ng·h/mL, a Cmax at 24 h of 10600 ng/mL and an MRT inf at 24 h of 172 min. For the same compound, in data set [9] (po, 50 mg/kg), the Tmax at 24 h was 60 min, the bioavailability at 24 h came to 42.6% and the half-life at 24 h is 131 min. Also, the IC50 at 48 h in [10] was 46.1 µg/mL (≈ 123 µM). On hERG K+ channel, this compound registered an IC50 of 18.3 µM.

Consider `C[C@H]1COC2(CCN(c3nc(=O)c4cc(C(F)(F)F)cc([N+](=O)[O-])c4s3)CC2)O1` [BTZ043], for which, in the data set on M. tuberculosis, the MICs is less than 0.016 µg/mL.

Source of the values: paper PMC8154581, “Discovery of Novel Thiophene-arylamide Derivatives as DprE1 Inhibitors with Potent Antimycobacterial Activities” (Journal of Medicinal Chemistry, 2021).
